We go through 26 compounds from US8471005B2 (Cephalon, Inc., priority 2008, dated 2013).

Read-outs that look alike come from different tables or passages of the source. Some results are limits rather than exact numbers.

Test [1] deals with T1, JAK2 (Homo sapiens, UniProt O60674).
T1 construct: host or cells: baculovirus expression system
As to the kind of experiment: Recombinant Human JAK2 Kinase Assay (TRF). To be noted: read-out: JAK2 Potency. The test is classed as biochemical. Put shortly:
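Baculovirus-expressed JAK2 (15 ng/ml) phosphorylated a biotinylated 15-mer peptide captured on Neutravidin, in 20 mM HEPES pH 7.2, 0.2 μM ATP, 1 mM MnCl2, 0.1% BSA, 2.5% DMSO final, 20 min at room temperature. Phosphoproduct detected by time-resolved fluorescence with Eu-N1-labelled PY100 antibody.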

In test [2] the target is T2, ALK (Homo sapiens, UniProt Q9UM73).
T2 construct: host or cells: baculovirus expression system
The experiment in a line: ALK Kinase Assay (ELISA/TRF, PLC-γ substrate). The test is classed as biochemical. To be noted: read-out: ALK Potency. In short, it runs like this:
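PLC-γ coat 10 μg/mL in TBS; ALK 30 ng/ml added to start; 37° C, 15 min; Eu-N1 PT66 antibody detection (TRF). IC50: % inhibition vs log10 [cpd], variable-slope sigmoidal fit.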
(In general: An ELISA detects its analyte on a solid surface through an enzyme-linked reagent.)

Where [3] appears, read: JAK2 kinase inhibition, 0.2 μM ATP.
The mark [4] stands for this setting: ALK kinase inhibition, 1 μM ATP.

T1 sequence (O60674 whole entry): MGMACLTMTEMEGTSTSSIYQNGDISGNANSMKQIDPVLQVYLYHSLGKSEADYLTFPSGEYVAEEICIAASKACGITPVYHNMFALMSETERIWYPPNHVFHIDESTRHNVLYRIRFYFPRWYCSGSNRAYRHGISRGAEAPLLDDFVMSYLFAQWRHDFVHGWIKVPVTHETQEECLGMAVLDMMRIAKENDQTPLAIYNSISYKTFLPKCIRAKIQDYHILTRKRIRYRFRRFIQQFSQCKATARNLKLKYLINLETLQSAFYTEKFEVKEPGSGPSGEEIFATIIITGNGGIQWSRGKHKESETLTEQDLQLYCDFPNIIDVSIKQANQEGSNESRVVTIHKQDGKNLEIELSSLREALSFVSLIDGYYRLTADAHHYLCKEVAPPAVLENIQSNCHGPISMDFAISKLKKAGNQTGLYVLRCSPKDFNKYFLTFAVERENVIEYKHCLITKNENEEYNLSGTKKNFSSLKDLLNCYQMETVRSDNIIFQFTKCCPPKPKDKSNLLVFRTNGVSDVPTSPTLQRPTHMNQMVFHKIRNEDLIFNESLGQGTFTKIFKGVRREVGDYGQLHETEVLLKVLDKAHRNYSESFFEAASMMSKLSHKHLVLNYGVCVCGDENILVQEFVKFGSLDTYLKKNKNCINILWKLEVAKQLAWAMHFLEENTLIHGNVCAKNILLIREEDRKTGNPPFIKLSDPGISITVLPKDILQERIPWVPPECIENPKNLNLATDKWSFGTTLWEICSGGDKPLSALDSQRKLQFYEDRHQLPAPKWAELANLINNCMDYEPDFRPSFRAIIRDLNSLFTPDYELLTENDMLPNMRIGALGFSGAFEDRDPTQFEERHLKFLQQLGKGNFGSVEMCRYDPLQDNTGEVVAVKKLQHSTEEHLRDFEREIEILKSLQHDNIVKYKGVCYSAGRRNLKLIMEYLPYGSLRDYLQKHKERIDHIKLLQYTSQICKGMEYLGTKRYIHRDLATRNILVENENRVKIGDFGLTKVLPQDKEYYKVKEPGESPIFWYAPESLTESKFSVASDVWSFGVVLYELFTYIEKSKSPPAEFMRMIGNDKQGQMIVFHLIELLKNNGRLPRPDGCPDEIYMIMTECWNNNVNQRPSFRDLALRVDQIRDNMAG
T2 sequence (Q9UM73 19-1620): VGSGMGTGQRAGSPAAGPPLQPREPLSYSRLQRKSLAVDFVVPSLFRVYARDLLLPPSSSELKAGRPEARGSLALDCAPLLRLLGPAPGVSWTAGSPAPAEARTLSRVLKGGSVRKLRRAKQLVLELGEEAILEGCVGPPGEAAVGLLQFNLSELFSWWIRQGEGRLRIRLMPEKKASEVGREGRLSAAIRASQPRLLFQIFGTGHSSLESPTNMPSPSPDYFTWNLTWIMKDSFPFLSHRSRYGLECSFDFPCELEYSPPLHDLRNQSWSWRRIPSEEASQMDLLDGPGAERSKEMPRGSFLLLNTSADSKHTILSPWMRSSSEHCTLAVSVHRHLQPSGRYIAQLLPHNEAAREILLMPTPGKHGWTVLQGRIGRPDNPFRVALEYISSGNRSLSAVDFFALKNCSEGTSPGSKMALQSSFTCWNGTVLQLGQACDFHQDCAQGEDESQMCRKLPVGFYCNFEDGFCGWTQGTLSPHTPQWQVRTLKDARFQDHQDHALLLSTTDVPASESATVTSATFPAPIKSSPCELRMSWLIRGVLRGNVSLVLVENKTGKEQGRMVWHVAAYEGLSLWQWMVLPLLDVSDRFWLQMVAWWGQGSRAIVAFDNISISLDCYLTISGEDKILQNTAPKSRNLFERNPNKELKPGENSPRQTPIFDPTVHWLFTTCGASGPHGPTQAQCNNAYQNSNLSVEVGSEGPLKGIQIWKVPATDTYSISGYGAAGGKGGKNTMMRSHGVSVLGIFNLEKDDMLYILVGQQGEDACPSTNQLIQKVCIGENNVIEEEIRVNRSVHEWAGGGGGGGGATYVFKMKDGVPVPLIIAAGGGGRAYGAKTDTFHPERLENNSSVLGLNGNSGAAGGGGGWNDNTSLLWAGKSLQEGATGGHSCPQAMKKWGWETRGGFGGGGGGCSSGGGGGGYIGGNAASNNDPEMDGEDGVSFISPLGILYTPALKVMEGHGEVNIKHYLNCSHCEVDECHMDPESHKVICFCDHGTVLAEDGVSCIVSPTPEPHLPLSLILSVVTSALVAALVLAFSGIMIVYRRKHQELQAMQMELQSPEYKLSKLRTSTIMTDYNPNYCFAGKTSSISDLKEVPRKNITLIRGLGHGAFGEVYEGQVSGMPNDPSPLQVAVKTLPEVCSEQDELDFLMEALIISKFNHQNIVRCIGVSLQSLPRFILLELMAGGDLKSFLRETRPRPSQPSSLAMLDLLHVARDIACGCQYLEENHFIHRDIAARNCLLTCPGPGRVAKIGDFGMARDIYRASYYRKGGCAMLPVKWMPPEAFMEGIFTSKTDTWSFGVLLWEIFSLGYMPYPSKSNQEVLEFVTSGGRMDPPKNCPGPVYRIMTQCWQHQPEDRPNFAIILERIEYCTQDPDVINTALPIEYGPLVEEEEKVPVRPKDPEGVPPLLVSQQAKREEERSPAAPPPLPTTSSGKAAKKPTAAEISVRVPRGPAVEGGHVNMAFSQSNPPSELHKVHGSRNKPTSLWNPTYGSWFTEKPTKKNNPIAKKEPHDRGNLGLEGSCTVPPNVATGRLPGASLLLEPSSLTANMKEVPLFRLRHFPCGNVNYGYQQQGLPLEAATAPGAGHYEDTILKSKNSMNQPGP

On to `CN1CCC(c2ccc(Nc3ncc4ccc(-c5cccnc5)n4n3)cc2)CC1` [Example 1179, [4-(1-Methyl-piperidin-4-yl)-phenyl]-(7-pyridin-3-yl-pyrrolo[2,1-f][1,2,4]triazin-2-yl)-amine], for which the IC50 in test [1] (setting [3]) is under 100 nM; in test [2] (setting [4]), 100 to 1000 nM.
As for `COc1ccc(-c2ccc3cnc(Nc4ccc5nc(CN6CCN(CCO)CC6)[nH]c5c4)nn23)cn1` [Example 1523, 2-(4-{6-[7-(6-Methoxy-pyridin-3-yl)-pyrrolo[2,1-f][1,2,4]triazin-2-ylamino]-1H-benzimidazol-2-ylmethyl}-piperazin-1-yl)-ethanol], the values for the IC50 in test [1] (JAK2 Kinase Inhibition) and in test [2] (ALK Kinase Inhibition) were under 100 nM and 1000 to 10000 nM, respectively.
`CNC(=O)c1cccc(Nc2ncc3ccc(-c4cccc(S(=O)(=O)NC(C)(C)C)c4)n3n2)c1` [Example 1384, 3-[7-(3-tert-Butylsulfamoyl-phenyl)-pyrrolo[2,1-f][1,2,4]triazin-2-ylamino]-N-methyl-benzamide]: the IC50 in test [1] (JAK2 Kinase Inhibition) was under 100 nM; in test [2] (ALK Kinase Inhibition), 1000 to 10000 nM.
Take `COc1ccncc1-c1ccc2cnc(Nc3ccc(N4CCN(C)CC4)cc3)nn12` [Example 1210, [7-(4-Methoxy-pyridin-3-yl)-pyrrolo[2,1-f][1,2,4]triazin-2-yl]-[4-(4-methyl-piperazin-1-yl)-phenyl]-amine]: the figures for the IC50 in test [1] (setting [3]) and in test [2] (setting [4]) were under 100 nM and 100 to 1000 nM, respectively.
On to `COc1ccccc1-c1ccc2cnc(Nc3ccc(C4CCN(C(=O)N5CCN(C)CC5)CC4)cc3)nn12` [Example 501, (4-{4-[7-(2-Methoxy-phenyl)-pyrrolo[2,1-f][1,2,4]triazin-2-ylamino]-phenyl}-piperidin-1-yl)-(4-methyl-piperazin-1-yl)-methanone], for which the IC50 in test [1] (setting [3]) and in test [2] (setting [4]) was under 100 nM in each case.
Consider `COc1cc(N2CCC(N3CCCN(CCO)CC3)CC2)ccc1Nc1ncc2ccc(-c3ccccc3OC)n2n1` [Example 801, 2-[4-(1-{3-Methoxy-4-[7-(2-methoxy-phenyl)-pyrrolo[2,1-f][1,2,4]triazin-2-ylamino]-phenyl}-piperidin-4-yl)-[1,4]diazepan-1-yl]-ethanol], for which the IC50 in test [1] (setting [3]) and in test [2] (setting [4]) was under 100 nM throughout.
For `CN1CCN(C2CCN(c3ccc(Nc4ncc5ccc(-c6cccc(Cl)c6)n5n4)cc3)CC2)CC1` [Example 312, [7-(3-Chloro-phenyl)-pyrrolo[2,1-f][1,2,4]triazin-2-yl]-{4-[4-(4-methyl-piperazin-1-yl)-piperidin-1-yl]-phenyl}-amine], the IC50 in test [1] (JAK2 Kinase Inhibition) and in test [2] (ALK Kinase Inhibition) was under 100 nM in each case.
As for `COc1cc(-c2ccc3cnc(Nc4ccc(C5CCN(C)CC5)cc4)nn23)ccn1` [Example 676, [7-(2-Methoxy-pyridin-4-yl)-pyrrolo[2,1-f][1,2,4]triazin-2-yl]-[4-(1-methyl-piperidin-4-yl)-phenyl]-amine], the IC50 was under 100 nM in test [1] (setting [3]) and 100 to 1000 nM in test [2] (setting [4]).
On to `CN1CCN(c2ccc(Nc3ncc4ccc(-c5cn(C)cn5)n4n3)cc2)CC1` [Example 1043, [7-(1-Methyl-1H-imidazol-4-yl)-pyrrolo[2,1-f][1,2,4]triazin-2-yl]-[4-(4-methyl-piperazin-1-yl)-phenyl]-amine], for which the IC50 in test [1] (setting [3]) is under 100 nM; in test [2] (setting [4]), 100 to 1000 nM.
Turning to `COc1ccc(-c2ccc3cnc(Nc4ccc(Cl)c(CN5CCOCC5)c4)nn23)cn1` [Example 973, (4-Chloro-3-morpholin-4-ylmethyl-phenyl)-[7-(6-methoxy-pyridin-3-yl)-pyrrolo[2,1-f][1,2,4]triazin-2-yl]-amine], the IC50 in test [1] (setting [3]) was under 100 nM; in test [2] (setting [4]), over 10000 nM.
For `COc1cc(N2CCN(C)CC2)ccc1Nc1ncc2ccc(-c3ccccc3N(C)S(C)(=O)=O)n2n1` [Example 1457, N-(2-{2-[2-Methoxy-4-(4-methyl-piperazin-1-yl)-phenylamino]-pyrrolo[2,1-f][1,2,4]triazin-7-yl}-phenyl)-N-methyl-methanesulfonamide], the figures for the IC50 in test [1] (JAK2 Kinase Inhibition) and in test [2] (ALK Kinase Inhibition) were 100 to 1000 nM and under 100 nM, respectively.
Taken in the same sequence, the figures for `CS(=O)(=O)Nc1cccc(-c2ccc3cnc(Nc4ccc5c(c4)CCC(N4CCOCC4)CC5)nn23)c1` (stereo not shown) [Example 382, N-{3-[2-(7-Morpholin-4-yl-6,7,8,9-tetrahydro-5H-benzocyclohepten-2-ylamino)-pyrrolo[2,1-f][1,2,4]triazin-7-yl]-phenyl}-methanesulfonamide] were under 100 nM and 100 to 1000 nM.
Take `O=S1(=O)CCCN1c1cccc(-c2ccc3cnc(Nc4ccc5c(c4)CCC(N4CCOCC4)CC5)nn23)c1` (stereo not shown) [Example 1507, 7-[3-(1,1-Dioxido-1,2-thiazolidin-2-yl)phenyl]-N-[7-(morpholin-4-yl)-6,7,8,9-tetrahydro-5H-benzo[7]annulen-2-yl]pyrrolo[2,1-f][1,2,4]triazin-2-amine]: the IC50 in test [1] (JAK2 Kinase Inhibition) is under 100 nM; in test [2] (ALK Kinase Inhibition), 100 to 1000 nM.
Consider `COc1ccccc1-c1ccc2cnc(Nc3ccc4c(c3)N3CCC4CC3)nn12` [Example 764, (3,4-Dihydro-2H-1,4-ethano-quinolin-7-yl)-[7-(2-methoxy-phenyl)-pyrrolo[2,1-f][1,2,4]triazin-2-yl]-amine], for which the IC50 in test [1] (setting [3]) and in test [2] (setting [4]) was under 100 nM in each case.
As for `COc1cc(-c2cccnc2)ccc1Nc1ncc2ccc(-c3ccccc3OC)n2n1` [Example 807, [7-(2-Methoxy-phenyl)-pyrrolo[2,1-f][1,2,4]triazin-2-yl]-(2-methoxy-4-pyridin-3-yl-phenyl)-amine], the IC50 in test [1] (setting [3]) is over 10000 nM; in test [2] (setting [4]), 1000 to 10000 nM.
Take `COc1ccc(-c2ccc3cnc(Nc4ccc(N5CCOCC5)nc4)nn23)cn1` [Example 1106]: the IC50 in test [1] (setting [3]) is under 100 nM; in test [2] (setting [4]) it was 1000 to 10000 nM.
With `CS(=O)(=O)c1cccc(-c2ccc3cnc(Nc4ccc5[nH]c(CN6CCN(CCO)CC6)nc5c4)nn23)c1` [Example 1539, 2-(4-{5-[7-(3-Methanesulfonyl-phenyl)-pyrrolo[2,1-f][1,2,4]triazin-2-ylamino]-1H-benzimidazol-2-ylmethyl}-piperazin-1-yl)-ethanol], the IC50 is under 100 nM in test [1] (JAK2 Kinase Inhibition) and 1000 to 10000 nM in test [2] (ALK Kinase Inhibition).
As to `COc1cc(CCN2CCN(C)CC2)ccc1Nc1ncc2ccc(-c3ccccc3N(C)S(C)(=O)=O)n2n1` [Example 491, N-[2-(2-{2-Methoxy-4-[2-(4-methyl-piperazin-1-yl)-ethyl]-phenylamino}-pyrrolo[2,1-f][1,2,4]triazin-7-yl)-phenyl]-N-methyl-methanesulfonamide], the IC50 in test [1] (setting [3]) was 100 to 1000 nM; in test [2] (setting [4]) it was under 100 nM.
On to `C[C@H](O)CN1CCN(c2ccc(Nc3ncc4ccc(-c5cccc(S(=O)(=O)NC(C)(C)C)c5)n4n3)cc2)CC1` [Example 427, N-tert-Butyl-3-(2-{4-[4-((S)-2-hydroxy-propyl)-piperazin-1-yl]-phenylamino}-pyrrolo[2,1-f][1,2,4]triazin-7-yl)-benzenesulfonamide], for which the IC50 in test [1] (JAK2 Kinase Inhibition) and in test [2] (ALK Kinase Inhibition) was under 100 nM throughout.
For the compound `CCN1CCCC(CC)(c2ccc(Nc3ncc4ccc(-c5ccccc5OC)n4n3)cc2)C1` (racemic) [Example 777, (±)-[4-(1,3-Diethyl-piperidin-3-yl)-phenyl]-[7-(2-methoxy-phenyl)pyrrolo-[2,1-f][1,2,4]triazin-2-yl]-amine], the IC50 in test [1] (setting [3]) and in test [2] (setting [4]) was under 100 nM throughout.
As to `CS(=O)(=O)Nc1cccc(-c2ccc3cnc(Nc4ccc(C5CCN(CCO)CC5)cc4)nn23)c1` [Example 958, N-[3-(2-{4-[1-(2-Hydroxy-ethyl)-piperidin-4-yl]-phenylamino}-pyrrolo[2,1-f][1,2,4]triazin-7-yl)-phenyl]-methanesulfonamide], the IC50 in test [1] (setting [3]) and in test [2] (setting [4]) was under 100 nM each time.
For `Cn1cc(-c2ccc3cnc(N4CCC(Oc5cccc(N)c5)CC4)nn23)cn1` [Example 598, 3-{1-[7-(1-Methyl-1H-pyrazol-4-yl)-pyrrolo[2,1-f][1,2,4]triazin-2-yl]-piperdin-4-yloxy}-phenylamine], the IC50 in test [1] (setting [3]) was 100 to 1000 nM; in test [2] (setting [4]), over 10000 nM.
As to `c1cc(N2CCOCC2)ccc1Nc1ncc2ccc(-c3ccc4c(c3)OCCO4)n2n1` [Example 5, [7-(2,3-Dihydro-benzo[1,4]dioxin-6-yl)-pyrrolo[2,1-f][1,2,4]triazin-2-yl]-(4-morpholin-4-yl-phenyl)-amine], the IC50 in test [1] (JAK2 Kinase Inhibition) is under 100 nM; in test [2] (ALK Kinase Inhibition) it was 1000 to 10000 nM.
Taken in the same sequence, the figures for `O=C(NCCCN1CCCC1)c1ccc(-c2ccc3cnc(Nc4ccc(N5CCOCC5)cc4)nn23)cc1` [Example 54, 4-[2-(4-Morpholin-4-yl-phenylamino)-pyrrolo[2,1-f][1,2,4]triazin-7-yl]-N-(3-pyrrolidin-1-yl-propyl)-benzamide] were under 100 nM and 100 to 1000 nM.
On to `COc1cc(N2CCN(C[C@H](C)O)CC2)c(F)cc1Nc1ncc2ccc(-c3ccccc3N(C)S(C)(=O)=O)n2n1` [Example 1479, N-[2-(2-{5-Fluoro-4-[4-((S)-2-hydroxy-propyl)-piperazin-1-yl]-2-methoxy-phenylamino}-pyrrolo[2,1-f][1,2,4]triazin-7-yl)-phenyl]-N-methyl-methanesulfonamide], for which the IC50 in test [1] (JAK2 Kinase Inhibition) was 100 to 1000 nM; in test [2] (ALK Kinase Inhibition), under 100 nM.
As to `CSc1cc(N2CCN(C[C@H](C)O)CC2)c(F)cc1Nc1ncc2ccc(-c3ccccc3N(C)S(C)(=O)=O)n2n1` [Example 1483, N-[2-(2-{5-Fluoro-4-[4-((S)-2-hydroxy-propyl)-piperazin-1-yl]-2-methylsulfanyl-phenylamino}-pyrrolo[2,1-f][1,2,4]triazin-7-yl)-phenyl]-N-methyl-methanesulfonamide], the results for the IC50 in test [1] (JAK2 Kinase Inhibition) and in test [2] (ALK Kinase Inhibition) were 1000 to 10000 nM and under 100 nM, respectively.
